Test results as given in patent publication US12018021B2 (UCB Biopharma SRL, priority 2018, dated 2024).

target: IgE-Tb / sFcεRIα-Y131A-AF488 (Homo sapiens, UniProt P01854, N146Q/N252Q); test: IgE-Tb / sFcεRIα-Y131A-AF488 FRET assay (protocol for examples 234 to 501); type: binding; conditions: examples 234 to 501: compound with IgE-Tb 30 minutes before sFcεRIα-Y131A-AF488, incubated 18 hours at room temperature; read-out: Y131A FRET IC50 range
Procedure, shortened: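 Read-out is the 520/490 nm emission ratio (337 nm excitation) after 18 h at room temperature, background subtracted, fitted four-parameter for IC50. Final reagents: 5 nM IgE-Tb, preincubated 30 min with compound (top typically 10 μM, 2% DMSO, 3-fold 10-point), plus 25 nM sFcεRIα-Y131A-AF488.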

Chain of IgE-Tb / sFcεRIα-Y131A-AF488 (P01854 whole entry N146Q/N252Q): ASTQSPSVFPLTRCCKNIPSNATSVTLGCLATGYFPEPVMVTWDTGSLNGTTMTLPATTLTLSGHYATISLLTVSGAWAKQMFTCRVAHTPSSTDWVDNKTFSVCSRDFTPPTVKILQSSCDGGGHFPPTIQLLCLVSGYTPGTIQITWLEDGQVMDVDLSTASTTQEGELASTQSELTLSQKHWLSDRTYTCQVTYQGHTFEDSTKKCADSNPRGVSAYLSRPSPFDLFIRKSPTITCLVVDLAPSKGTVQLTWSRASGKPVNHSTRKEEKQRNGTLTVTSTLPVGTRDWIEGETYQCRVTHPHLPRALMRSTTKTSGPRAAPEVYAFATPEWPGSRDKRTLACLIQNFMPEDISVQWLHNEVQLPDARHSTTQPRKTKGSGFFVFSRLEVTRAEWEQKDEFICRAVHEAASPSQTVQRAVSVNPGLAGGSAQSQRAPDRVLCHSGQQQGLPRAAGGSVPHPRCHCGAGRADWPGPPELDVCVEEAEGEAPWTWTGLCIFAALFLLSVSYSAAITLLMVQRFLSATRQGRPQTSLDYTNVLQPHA

SMILES | IC50
Cc1c(Nc2nncn2[C@H]2CCc3sc(NC(=O)C4CC4)c(C(=O)NCC4CC4)c3C2)cccc1S(C)(=O)=O [Example 264, (5S)-2-(cyclopropanecarbonylamino)-N-(cyclopropylmethyl)-5-[3-(2-methyl-3-methylsulfonyl-anilino)-1,2,4-triazol-4-yl]-4,5,6,7-tetrahydrobenzothiophene-3-carboxamide] | < 1000 nM
Cn1nc(-c2ncco2)cc1Nc1nncn1[C@H]1CCc2sc(NC(=O)C3CC3)c(C(=O)NCC3CC3)c2C1 [Example 265, (5S)-2-(cyclopropanecarbonylamino)-N-(cyclopropylmethyl)-5-[3-[(2-methyl-5-oxazol-2-yl-pyrazol-3-yl)amino]-1,2,4-triazol-4-yl]-4,5,6,7-tetrahydrobenzothiophene-3-carboxamide] | < 1000 nM
CC(=O)N1CC[C@H](Nc2nncn2[C@H]2CCc3sc(NC(=O)C4CC4)c(C(=O)NCC4CC4)c3C2)C1 [Example 266, (5S)-5-[3-[[(3S)-1-acetylpyrrolidin-3-yl]amino]-1,2,4-triazol-4-yl]-2-(cyclopropanecarbonylamino)-N-(cyclopropylmethyl)-4,5,6,7-tetrahydrobenzothiophene-3-carboxamide] | < 1000 nM
CS(=O)(=O)N1CC[C@H](Nc2nncn2[C@H]2CCc3sc(NC(=O)C4CC4)c(C(=O)NCC4CC4)c3C2)C1 [Example 267, (5S)-2-(cyclopropanecarbonylamino)-N-(cyclopropylmethyl)-5-[3-[[(3S)-1-methylsulfonylpyrrolidin-3-yl]amino]-1,2,4-triazol-4-yl]-4,5,6,7-tetrahydrobenzothiophene-3-carboxamide] | < 1000 nM
CS(=O)(=O)N1CC[C@@H](Nc2nncn2[C@H]2CCc3sc(NC(=O)C4CC4)c(C(=O)NCC4CC4)c3C2)C1 [Example 268, (5S)-2-(cyclopropanecarbonylamino)-N-(cyclopropylmethyl)-5-[3-[[(3R)-1-methylsulfonylpyrrolidin-3-yl]amino]-1,2,4-triazol-4-yl]-4,5,6,7-tetrahydrobenzothiophene-3-carboxamide] | < 1000 nM
O=C1CC(Nc2nncn2[C@H]2CCc3sc(NC(=O)C4CC4)c(C(=O)NCC4CC4)c3C2)CN1 (stereo partly drawn) [Example 270, (5S)-2-(cyclopropanecarbonylamino)-N-(cyclopropylmethyl)-5-[3-[(5-oxopyrrolidin-3-yl)amino]-1,2,4-triazol-4-yl]-4,5,6,7-tetrahydrobenzothiophene-3-carboxamide] | < 1000 nM
O=C1CC(Nc2nncn2[C@H]2CCc3sc(NC(=O)C4CC4)c(C(=O)NCC4CC4)c3C2)CCN1 (stereo partly drawn) [Example 272, (5S)-2-(cyclopropanecarbonylamino)-N-(cyclopropylmethyl)-5-[3-[(2-oxo-4-piperidyl)amino]-1,2,4-triazol-4-yl]-4,5,6,7-tetrahydrobenzothiophene-3-carboxamide] | < 1000 nM
CC(=O)N1CCC(Nc2nncn2[C@H]2CCc3sc(NC(=O)C4CC4)c(C(=O)NCC4CC4)c3C2)C1C (stereo partly drawn) [Example 273, (5S)-5-[3-[(1-acetyl-2-methyl-pyrrolidin-3-yl)amino]-1,2,4-triazol-4-yl]-2-(cyclopropanecarbonylamino)-N-(cyclopropylmethyl)-4,5,6,7-tetrahydrobenzothiophene-3-carboxamide] | < 1000 nM
CC(=O)N1CCC(Nc2nncn2[C@H]2CCc3sc(NC(=O)C4CC4)c(C(=O)NCC4CC4)c3C2)CC1 [Example 286, (5S)-5-[3-[(1-acetyl-4-piperidyl)amino]-1,2,4-triazol-4-yl]-2-(cyclopropanecarbonylamino)-N-(cyclopropylmethyl)-4,5,6,7-tetrahydrobenzothiophene-3-carboxamide] | < 1000 nM
COC(=O)N1CC[C@H](Nc2nncn2[C@H]2CCc3sc(NC(=O)C4CC4)c(C(=O)NCC4CC4)c3C2)C1 [Example 287, Methyl (3S)-3-[[4-[(5S)-2-(cyclopropanecarbonylamino)-3-(cyclopropylmethylcarbamoyl)-4,5,6,7-tetrahydrobenzothiophen-5-yl]-1,2,4-triazol-3-yl]amino]pyrrolidine-1-carboxylate] | < 1000 nM
CCNC(=O)N1CC[C@H](Nc2nncn2[C@H]2CCc3sc(NC(=O)C4CC4)c(C(=O)NCC4CC4)c3C2)C1 [Example 288, (3S)-3-[[4-[(5S)-2-(cyclopropanecarbonylamino)-3-(cyclopropylmethylcarbamoyl)-4,5,6,7-tetrahydrobenzothiophen-5-yl]-1,2,4-triazol-3-yl]amino]-N-ethyl-pyrrolidine-1-carboxamide] | < 1000 nM
Cn1nc(OC(F)(F)F)cc1Nc1nncn1[C@H]1CCc2sc(NC(=O)[C@H]3C[C@H]3F)c(C(=O)NCC3CC3)c2C1 [Example 292, (5S)—N-(cyclopropylmethyl)-2-[[(1R,2R)-2-fluorocyclopropanecarbonyl]amino]-5-[3-[[2-methyl-5-(trifluoromethoxy)pyrazol-3-yl]amino]-1,2,4-triazol-4-yl]-4,5,6,7-tetrahydrobenzothiophene-3-carboxamide] | < 1000 nM
Cn1nc(OC(F)(F)Cl)cc1Nc1nncn1[C@H]1CCc2sc(NC(=O)[C@H]3C[C@H]3F)c(C(=O)NCC3CC3)c2C1 [Example 293, (5S)-5-[3-[[5-[chloro(difluoro)methoxy]-2-methyl-pyrazol-3-yl]amino]-1,2,4-triazol-4-yl]-N-(cyclopropylmethyl)-2-[[(1R,2R)-2-fluorocyclopropanecarbonyl]amino]-4,5,6,7-tetrahydrobenzothiophene-3-carboxamide] | < 1000 nM
Cn1nc(OC(F)(F)F)cc1Nc1nncn1[C@H]1CCc2sc(NC(=O)C3CC3)c(C(=O)NCC3CC3)c2C1 [Example 294, (5S)-2-(cyclopropanecarbonylamino)-N-(cyclopropylmethyl)-5-[3-[[2-methyl-5-(trifluoromethoxy)pyrazol-3-yl]amino]-1,2,4-triazol-4-yl]-4,5,6,7-tetrahydrobenzothiophene-3-carboxamide] | < 1000 nM
Cn1nc(OC(F)(F)Cl)cc1Nc1nncn1[C@H]1CCc2sc(NC(=O)C3CC3)c(C(=O)NCC3CC3)c2C1 [Example 295, (5S)-5-[3-[[5-[chloro(difluoro)methoxy]-2-methyl-pyrazol-3-yl]amino]-1,2,4-triazol-4-yl]-2-(cyclopropanecarbonylamino)-N-(cyclopropylmethyl)-4,5,6,7-tetrahydrobenzothiophene-3-carboxamide] | < 1000 nM
Cc1nnc(-c2cc(Nc3nncn3[C@H]3CCc4sc(NC(=O)C5CC5)c(C(=O)NCC5CC5)c4C3)n(C)n2)o1 [Example 296, (5S)-2-cyclopropaneamido-N-(cyclopropylmethyl)-5-(3-{[1-methyl-3-(5-methyl-1,3,4-oxadiazol-2-yl)-1H-pyrazol-5-yl]amino}-4H-1,2,4-triazol-4-yl)-4,5,6,7-tetrahydro-1-benzothiophene-3-carboxamide] | < 1000 nM
COc1cnc(Nc2nncn2[C@H]2CCc3sc(NC(=O)C4CC4)c(C(=O)NCC4CC4)c3C2)c(C)n1 [Example 297, (5S)-2-(cyclopropanecarbonylamino)-N-(cyclopropylmethyl)-5-[3-[(5-methoxy-3-methyl-pyrazin-2-yl)amino]-1,2,4-triazol-4-yl]-4,5,6,7-tetrahydrobenzothiophene-3-carboxamide] | < 1000 nM
Cc1ccc2nc(N[C@H]3CCc4sc(NC(=O)C5CC5)c(C(=O)NCC5CC5)c4C3)sc2n1 [Example 298, (5S)-2-(cyclopropanecarbonylamino)-N-(cyclopropylmethyl)-5-[(5-methylthiazolo[5,4-b]pyridin-2-yl)amino]-4,5,6,7-tetrahydrobenzothiophene-3-carboxamide] | < 1000 nM
Cc1ncc(C#N)cc1Nc1nncn1[C@H]1CCc2sc(NC(=O)C3CC3)c(C(=O)NCC3CC3)c2C1 [Example 299, (5S)-5-[3-[(5-cyano-2-methyl-3-pyridyl)amino]-1,2,4-triazo-4-yl]-2-(cyclopropanecarbonylamino)-N-(cyclopropylmethyl)-4,5,6,7-tetrahydrobenzothiophene-3-carboxamide] | < 1000 nM
Cc1nc(C#N)ccc1Nc1nncn1[C@H]1CCc2sc(NC(=O)C3CC3)c(C(=O)NCC3CC3)c2C1 [Example 300, (5S)-5-[3-[(6-cyano-2-methyl-3-pyridyl)amino]-1,2,4-triazol-4-yl]-2-(cyclopropanecarbonylamino)-N-(cyclopropylmethyl)-4,5,6,7-tetrahydrobenzothiophene-3-carboxamide] | < 1000 nM
Cn1ccc(Nc2nncn2[C@H]2CCc3sc(NC(=O)C4CC4)c(C(=O)NCC4CC4)c3C2)cc1=O [Example 301, (5S)-2-(cyclopropanecarbonylamino)-N-(cyclopropylmethyl)-5-[3-[(1-methyl-2-oxo-4-pyridyl)amino]-1,2,4-triazol-4-yl]-4,5,6,7-tetrahydrobenzothiophene-3-carboxamide] | < 1000 nM
Cc1nc(Cl)ccc1Nc1nncn1[C@H]1CCc2sc(NC(=O)C3CC3)c(C(=O)NCC3CC3)c2C1 [Example 302, (5S)-5-[3-[(6-chloro-2-methyl-3-pyridyl)amino]-1,2,4-triazol-4-yl]-2-(cyclopropanecarbonylamino)-N-(cyclopropylmethyl)-4,5,6,7-tetrahydrobenzothiophene-3-carboxamide] | < 1000 nM
Cc1nc(C(F)(F)F)ccc1Nc1nncn1[C@H]1CCc2sc(NC(=O)C3CC3)c(C(=O)NCC3CC3)c2C1 [Example 303, (5S)-2-(cyclopropanecarbonylamino)-N-(cyclopropylmethyl)-5-[3-[[2-methyl-6-(trifluoromethyl)-3-pyridyl]amino]-1,2,4-triazol-4-yl]-4,5,6,7-tetrahydrobenzothiophene-3-carboxamide] | < 1000 nM
Cc1nnccc1Nc1nncn1[C@H]1CCc2sc(NC(=O)C3CC3)c(C(=O)NCC3CC3)c2C1 [Example 304, (5S)-2-(cyclopropanecarbonylamino)-N-(cyclopropylmethyl)-5-[3-[(3-methylpyridazin-4-yl)amino]-1,2,4-triazol-4-yl]-4,5,6,7-tetrahydrobenzothiophene-3-carboxamide] | < 1000 nM
